Reference: PubChem BioAssay AID1224920 (Broad Institute, 2016)
Activity calls are given as the source filed them.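 The calls were made as follows: active = IC50 no higher than ten times the top tested dose; inconclusive = flat fit with 30 to 70% inhibition, or poor fit; inactive = IC50 above ten times the top dose.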

Experiment: growth modulation of Clostridium difficile isolate – OD600, 9-point, retest, dose response (AID 1224920);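 also: plate controls were DMSO for no effect and levofloxacin control for full effect; inhibitors lower culture turbidity so OD600 falls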
Conditions: Clostridium difficile clinical isolate growth, OD600, 24 h

Row | Compound | activity change, negative = inhibition (at 120 µM (top of the series)) | also measured
1 | N#Cc1cccc(-c2ccc(C3[C@@H]4CN(S(=O)(=O)Cc5ccccc5)C[C@H]3N4)cc2)c1 (stereo partly drawn) |  | activity change, negative = inhibition (at 60 µM (top of the series)): 29.4% (inactive)
2 | CN1c2ccc(-c3ccc(F)cc3)cc2[C@H]2[C@H](CCN2C(=O)Nc2ccc(F)cc2)[C@H]1CO | 43.1% (inactive) | 
3 | N#C[C@@H]1[C@@H](c2ccccc2-c2cccc(F)c2)[C@H](CO)N1C(=O)NC1CCCC1 | 10.6% (inactive) | 
4 | COc1ccc(NC(=O)N2CCCCN3[C@@H](CO)[C@@H](c4ccc(-c5ccccc5C)cc4)[C@@H]3C2)cc1 |  | activity change, negative = inhibition (at 30 µM (top of the series)): 48% (inactive)
5 | CC(=O)N(C)C[C@H]1[C@H](c2ccc(-c3ccccc3F)cc2)[C@H](CO)N1C(C)=O | -3.85% (inactive) | 
6 | O=C(c1cccc(F)c1)N1CC[C@@H]2[C@@H](CO)Nc3ccc(C#Cc4ccc(F)cc4)cc3[C@@H]21 | 38.1% (inactive) | 
7 | COc1ccc(NC(=O)N2CC[C@@H]3[C@H]2c2cc(Br)ccc2N(C)[C@@H]3CO)cc1 |  | activity change, negative = inhibition (at 135 µM (top of the series)): 17.8% (inactive)
8 | O=S(=O)(c1cccc(F)c1)N1CC[C@@H]2[C@@H](CO)Nc3ccc(-c4cccc(F)c4)cc3[C@@H]21 | 45.7% (inactive) | 
9 | O=S(=O)(c1ccccc1)N1CCCCN2[C@H](CO)[C@H](c3ccc(C#Cc4ccccc4)cc3)[C@H]2C1 | 27.6% (inactive) | 
10 | COc1cccc(-c2ccc3c(c2)[C@@H]2[C@@H](CCN2C(=O)Nc2ccccc2OC)[C@@H](CO)N3C)c1 |  | activity change, negative = inhibition (at 135 µM (top of the series)): -19.3% (inactive)
11 | COc1ccc2c3c(n(C)c2c1)[C@H](CO)N(C(=O)c1ccncc1)CC31CN(C)C1 | 3.29% (inactive) | 
12 | CCCNC(=O)N1[C@H](C#N)[C@@H](c2ccccc2-c2ccc(C)cc2)[C@@H]1CO | 17% (inactive) | 
13 | O=C(Nc1cccc(F)c1)N1CCCCN2[C@H](CO)[C@@H](c3ccc(-c4ccccc4F)cc3)[C@@H]2C1 | 39.6% (inactive) | 
14 | CN(C)C(=O)c1cccc(-c2ccc(C3[C@H]4CNC[C@@H]3N4S(=O)(=O)c3ccc(Cl)cc3)cc2)c1 (stereo partly drawn) |  | activity change, negative = inhibition (at 135 µM (top of the series)): 10.5% (inactive)
15 | C/C=C/c1ccc([C@H]2[C@@H](CO)N(C(=O)CC)[C@@H]2CNC(=O)CC)cc1 |  | activity change, negative = inhibition (at 135 µM (top of the series)): -8.82% (inactive)
16 | C[C@H](CO)N1C[C@H](C)[C@@H](CN(C)S(=O)(=O)c2ccc(Cl)cc2)Oc2c(NS(=O)(=O)c3ccccc3)cccc2C1=O | -3.11% (inactive) | 
17 | CC(=O)N(C)C[C@H]1[C@H](c2ccc(-c3ccccc3F)cc2)[C@@H](CO)N1C(C)=O | -11.8% (inactive) | 

Row | Compound | activity change, negative = inhibition (at 120 µM (top of the series)) | also measured
18 | CC(=O)N(C)C[C@H]1[C@@H](c2ccc(-c3ccccc3F)cc2)[C@@H](CO)N1C(C)=O | -10.3% (inactive) | 
19 | O=S(=O)(c1ccc(F)cc1)N1CCCCN2[C@H](CO)[C@H](c3ccc(-c4ccccc4)cc3)[C@H]2C1 | 39.2% (inactive) | 
20 | O=C(Nc1cccc(F)c1)N1CC(=O)N2[C@H](C1)[C@H](c1ccc(-c3cccc(F)c3)cc1)[C@@H]2CO |  | activity change, negative = inhibition (at 135 µM (top of the series)): 37.9% (inactive)
21 | C/C=C/c1ccc([C@@H]2[C@@H](CO)N(Cc3ccccn3)[C@H]2CNC(C)=O)cc1 | -14.5% (inactive) | 
22 | Cc1ccc(-c2ccc([C@@H]3[C@@H](CO)N4CCCCN(C(=O)Nc5cccc(F)c5)C[C@@H]34)cc2)cc1 |  | activity change, negative = inhibition (at 135 µM (top of the series)): 15.8% (inactive)
23 | C/C=C/c1ccc(C2[C@@H]3CN(Cc4cccc(OC)c4)C[C@H]2N3)cc1 (stereo partly drawn) |  | activity change, negative = inhibition (at 60 µM (top of the series)): 20.9% (inactive)
24 | COc1ccc(-c2ccccc2[C@@H]2[C@@H](C#N)N(C(=O)NC3CCCC3)[C@H]2CO)cc1 |  | activity change, negative = inhibition (at 68 µM (top of the series)): -5% (inactive)
25 | COc1ccc2c3c(n(C)c2c1)[C@H](CO)N(C)CC31CN(C(=O)NC(C)C)C1 | 0.365% (inactive) | 
26 | O=C(Nc1ccc(F)cc1)N1CCCCN2[C@H](C1)[C@@H](c1ccc(-c3cccc(F)c3)cc1)[C@@H]2CO | 43.3% (inactive) | 
27 | O=C(Cc1ccccc1)N1CC[C@H]2[C@H](CO)Nc3ccc(C4=CCCCC4)cc3[C@H]21 |  | activity change, negative = inhibition (at 135 µM (top of the series)): 25.9% (inactive)
28 | N#Cc1cccc(-c2ccc(C3[C@H]4CNC[C@@H]3N4C(=O)Nc3ccc(F)cc3)cc2)c1 (stereo partly drawn) |  | activity change, negative = inhibition (at 68 µM (top of the series)): 21.6% (inactive)
29 | COc1cccc(-c2ccc(C3[C@@H]4CN(C(=O)C5CCCCC5)C[C@H]3N4)cc2)c1 (stereo partly drawn) |  | activity change, negative = inhibition (at 60 µM (top of the series)): 34.7% (inactive)
30 | N#C[C@@H]1[C@@H](c2ccccc2-c2cccc(F)c2)[C@H](CO)N1C(=O)NC1CCCCC1 | 9.02% (inactive) | 
31 | C/C=C/c1ccc(C2[C@@H]3CN(S(=O)(=O)c4ccc(F)cc4)C[C@H]2N3)cc1 (stereo partly drawn) |  | activity change, negative = inhibition (at 60 µM (top of the series)): 42.1% (inactive)
32 | C/C=C/c1ccc([C@H]2[C@@H](CNC(C)C)N(c3nc(CC)cs3)[C@H]2CO)cc1 |  | activity change, negative = inhibition (at 135 µM (top of the series)): 32.5% (inactive)
33 | COc1ccccc1-c1ccc2c(c1)[C@@H]1[C@@H](CCN1C(=O)C1CCOCC1)[C@@H](CO)N2 |  | activity change, negative = inhibition (at 60 µM (top of the series)): 39.1% (inactive)
